Experimental data taken from patent publication US6875760B2 (Novo Nordisk A/S, priority 1999, dated 2005).

target: T1, human glucagon receptor (Homo sapiens, UniProt P47871); assay: Glucagon Binding Assay (III); conditions: BHK cell membranes, WGA SPA beads, 125I-glucagon; read-out: Glu Bd Assay (III) IC50
T1 construct: expressed in transfected cells; host or cells: BHK (baby hamster kidney) cells
Description: BHK (baby hamster kidney cell line) cells were transfected with the human glucagon receptor and a membrane preparation of the cells was prepared.
All steps in the membrane preparation were kept on ice or performed at 4° C. BHK cells were harvested and centrifuged. […] The pellet was resuspended in homogenisation buffer, homogenised 2×10 sec (Polytron) and additional homogenisation buffer was added. […] (Polytron).
The glucagon binding assay was carried out in opti plates (Polystyrene Microplates, Packard). […] Finally 50 μL WGA beads containing 1 mg beads were transferred to the well. The assay was incubated for 4 hours on a shaker and then settled for 8-48 hours. The opti plates were counted in a Topcounter. Non-specific binding was determined with 500 nM of glucagon.

T1 sequence (P47871 26-477): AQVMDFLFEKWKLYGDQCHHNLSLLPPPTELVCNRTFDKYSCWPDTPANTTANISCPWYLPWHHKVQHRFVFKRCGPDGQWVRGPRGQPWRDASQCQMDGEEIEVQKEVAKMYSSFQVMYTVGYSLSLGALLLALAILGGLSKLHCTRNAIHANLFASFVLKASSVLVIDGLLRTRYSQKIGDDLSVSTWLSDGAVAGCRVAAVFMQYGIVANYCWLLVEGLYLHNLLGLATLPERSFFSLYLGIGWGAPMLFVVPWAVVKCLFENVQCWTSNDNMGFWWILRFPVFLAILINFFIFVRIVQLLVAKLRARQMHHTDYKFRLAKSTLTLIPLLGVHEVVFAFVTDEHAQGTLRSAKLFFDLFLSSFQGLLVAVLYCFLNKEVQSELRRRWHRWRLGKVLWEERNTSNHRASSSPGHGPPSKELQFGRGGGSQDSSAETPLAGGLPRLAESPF

Row | IC50 [nM] | Structure (SMILES)
1 | 23 | CCCCN1C(=O)c2ccc(NC(=O)N(Cc3ccc(C(=O)Nc4nn[nH]n4)cc3)c3ccc(C(C)(C)C)cc3)cc2C1=O [Example 378, 4-[3-(2-Butyl-1,3-dioxo-2,3-dihydro-1H-isoindol-5-yl)-1-(4-tert-butylphenyl)ureidomethyl]-N-(2H-tetrazol-5-yl)benzamide]
2 | 11 | O=C(Nc1nn[nH]n1)c1ccc(CN(C(=O)NCc2ccccc2-c2ccccc2)c2ccc(C3CCCCC3)cc2)cc1 [Example 354, 4-[3-Biphenyl-2-ylmethyl-1-(4-cyclohexylphenyl)ureidomethyl]-N-(2H-tetrazol-5-yl)benzamide]
3 | 528 | O=C(O)CCNC(=O)c1ccc(CN(C(=O)Nc2ccc(OC(F)(F)F)cc2)C2CCC(Oc3ccccc3)CC2)cc1 (stereo not shown) [Example 244, 3-{4-[1-(4-Phenoxycyclohexyl)-3-(4-trifluoromethoxyphenyl)ureidomethyl]benzoylamino}propionic acid]
4 | 338 | O=C(O)CCNC(=O)c1ccc(CN(NC(=O)c2ccc(OC(F)(F)F)cc2)C2CCC(c3ccccc3)CC2)cc1 (stereo not shown) [Example 426, 3-{4-[N-(4-Phenylcyclohexyl)-N′-(4-trifluoromethoxybenzoyl)hydrazinomethyl]benzoylamino}propionic acid]
5 | 192 | CC(=O)c1ccc(NC(=O)N(Cc2ccc(C(=O)Nc3nn[nH]n3)cc2)c2ccc(C3CCCCC3)cc2)cc1 [Example 272, 4-[3-(4-Acetylphenyl)-1-(4-cyclohexylphenyl)ureidomethyl]-N-(2H-tetrazol-5-yl)benzamide]
6 | 279 | CC(C)(C)c1ccc(N(Cc2ccc(C(=O)Nc3nn[nH]n3)cc2)C(=O)Nc2cccc(C#N)c2)cc1 [Example 295, 4-[1-(4-tert-Butylphenyl)-3-(3-cyanophenyl)ureidomethyl]-N-(2H-tetrazol-5-yl)benzamide]
7 | 505 | O=C(O)CCNC(=O)c1ccc(CN(CC(c2ccccc2)c2ccccc2)C(=O)Nc2ccc(Oc3ccccc3)cc2)cc1 [Example 53, 3-{4-[1-(2,2-Diphenylethyl)-3-(4-phenoxyphenyl)ureidomethyl]benzoylamino}propionic acid]
8 | 95 | CCCCN(C)C(=O)c1cccc(NC(=O)N(Cc2ccc(C(=O)Nc3nn[nH]n3)cc2)c2ccc(C3CCCCC3)cc2)c1 [Example 464, N-Butyl-N-methyl-3-{3-(4-cyclohexylphenyl)-3-[4-(2H-tetrazol-5-ylcarbamoyl)benzyl]ureido}benzamide]
9 | 245 | CC(C)OC(=O)c1ccc(NC(=O)N(Cc2ccc(C(=O)NCCC(=O)O)cc2)C2CCC(C(C)(C)C)CC2)cc1 (stereo not shown) [Example 73, 4-{3-(4-tert-Butylcyclohexyl)-3-[4-(2-carboxyethylcarbamoyl)benzyl]ureido}benzoic acid isopropyl ester]
10 | 797 | COc1ccc(NC(=O)N(Cc2ccc(C(=O)Nc3nn[nH]n3)cc2)c2ccc(C(C)(C)C)cc2)cc1S(C)(=O)=O [Example 339, 4-[1-(4-tert-Butylphenyl)-3-(3-methylsulfonyl-4-methoxyphenyl)ureidomethyl]-N-(2H-tetrazol-5-yl)benzamide]
11 | 184 | CCCCC(CC)CN(Cc1ccc(C(=O)NCCC(=O)O)cc1)C(=O)Nc1ccc(Oc2ccccc2)cc1 (stereo not shown) [Example 14, 3-{4-[1-(2-Ethylhexyl)-3-(4-phenoxyphenyl)ureidomethyl]benzoylamino}propionic acid]
12 | 23 | CC(C)c1noc(-c2cccc(NC(=O)N(Cc3ccc(C(=O)Nc4nn[nH]n4)cc3)c3ccc(C4CCCCC4)cc3)c2)n1 [Example 468, 4-{1-(4-Cyclohexylphenyl)-3-[3-(3-isopropyl-[1,2,4]oxadiazol-5-yl)phenyl]ureidomethyl}-N-(2H-tetrazol-5-yl)benzamide]
13 | 276 | O=C(Nc1nn[nH]n1)c1ccc(CN(C(=O)/C=C/c2c(Cl)cccc2Cl)c2ccc(C3CCCCC3)cc2)cc1 [Example 480, 4-({(4-Cyclohexylphenyl)-[3-(2,6-dichlorophenyl)acryloyl]amino}methyl)-N-(2H-tetrazol-5-yl)benzamide]
14 | 304 | CC(C)(C)c1ccc(N(Cc2ccc(C(=O)Nc3nn[nH]n3)cc2)C(=O)Nc2cccc(Cl)c2)cc1 [Example 296, 4-[1-(4-tert-Butylphenyl)-3-(3-chlorophenyl)ureidomethyl]-N-(2H-tetrazol-5-yl)benzamide]
15 | 470 | O=C(Nc1nn[nH]n1)c1ccc(CN(CC(c2ccccc2)c2ccccc2)C(=O)Cc2cccc(OC(F)(F)F)c2)cc1 [Example 529, 4-({(2,2-Diphenylethyl)-[2-(3-trifluoromethoxyphenyl)acetyl]amino}methyl)-N-(2H-tetrazol-5-yl)benzamide]
16 | 4100 | CCOc1ccc(N(Cc2ccc(C(=O)NCCC(=O)O)cc2)C(=O)Nc2ccc(OC(F)(F)F)cc2)cc1 [Example 442, 3-{4-[1-(4-Ethoxyphenyl)-3-(4-trifluoromethoxyphenyl)ureidomethyl]benzoylamino}propionic acid]
17 | 38 | O=C(Nc1nn[nH]n1)c1ccc(CN(C(=O)Nc2cc(Br)cc(C(F)(F)F)c2)c2ccc(C3=CCCCC3)cc2)cc1 [Example 269, 4-[3-(3-Bromo-5-trifluoromethylphenyl)-1-(4-cyclohex-1-enylphenyl)ureidomethyl]-N-(2H-tetrazol-5-yl)benzamide]
18 | 44 | CC(C)(C)c1ccc(N(Cc2ccc(C(=O)Nc3nn[nH]n3)cc2)C(=O)Nc2cc(C(F)(F)F)cc(C(F)(F)F)c2)cc1 [Example 330, 4-[3-(3,5-Bis(trifluoromethyl)phenyl)-1-(4-tert-butylphenyl)ureidomethyl]-N-(2H-tetrazol-5-yl)benzamide]
19 | 1700 | COc1cc(OC)c(NC(=O)N(Cc2ccc(C(=O)NCCC(=O)O)cc2)C2CCC(C(C)(C)C)CC2)cc1Cl (stereo not shown) [Example 24, 3-{4-[1-(4-tert-Butylcyclohexyl)-3-(5-chloro-2,4-dimethoxyphenyl)ureidomethyl]benzoylamino}propionic acid]
20 | 22 | CC(NC(=O)N(Cc1ccc(C(=O)Nc2nn[nH]n2)cc1)c1ccc(C2CCCCC2)cc1)c1ccc(Cl)cc1 (single isomer, unassigned) [Example 337, 4-[3-[1-(4-Chlorophenyl)ethyl]-1-(4-Cyclohexylphenyl)ureidomethyl]-N-(2H-tetrazol-5-yl)benzamide]
21 | 71 | CC(C)(C)[C@H]1CC[C@H](N(Cc2ccc(C(=O)Nc3nn[nH]n3)cc2)NC(=O)c2ccc(OC(F)(F)F)cc2)CC1 [Example 380, 4-[N-(trans-4-tert-Butylcyclohexyl)-N′-(4-trifluoromethoxybenzoyl)hydrazinomethyl]-N-(2H-tetrazol-5-yl)benzamide]
22 | 15 | CN(c1ccccc1)S(=O)(=O)c1cccc(NC(=O)N(Cc2ccc(C(=O)Nc3nn[nH]n3)cc2)c2ccc(C3CCCCC3)cc2)c1 [Example 266, 4-{1-(4-Cyclohexylphenyl)-3-[3-(methylphenylsulfamoyl)phenyl]ureidomethyl}-N-(2H-tetrazol-5-yl)benzamide]
23 | 9 | O=C(Nc1nn[nH]n1)c1ccc(CN(C(=O)Nc2ccc(F)c(C(F)(F)F)c2)c2ccc(C3CCCCC3)cc2)cc1 [Example 600, 4-[1-(4-Cyclohexylphenyl)-3-(4-fluoro-3-trifluoromethylihenyl)ureidomethyl]-N-(2H-tetrazol-5-yl)benzamide]
24 | 552 | CC(C)(C)C1CCC(N(Cc2ccc(C(=O)Nc3nn[nH]n3)cc2)C(=O)/C=C/c2cccc3ccccc23)CC1 (stereo not shown) [Example 544]
25 | 6 | CCN(c1ccccc1)S(=O)(=O)c1cc(NC(=O)N(Cc2ccc(C(=O)NCCC(=O)O)cc2)[C@H]2CC[C@H](C3CCCCC3)CC2)ccc1C [Example 390, 3-(4-{1-(trans-4-Cyclohexylcyclohexyl)-3-[3-(N-ethyl-N-phenylsulfamoyl)-4-methylphenyl]ureidomethyl}benzoylamino)propionic acid]
26 | 50 | CC(C)(C)c1ccc(N(Cc2ccc(C(=O)Nc3nn[nH]n3)cc2)C(=O)Nc2cccc(C(F)(F)F)c2)cc1 [Example 294, 4-[1-(4-tert-Butylphenyl)-3-(3-trifluoromethylphenyl)ureidomethyl]-N-(2H-tetrazol-5-yl)benzamide]
27 | 99 | CCOC(=O)c1ccc2nc(NC(=O)N(Cc3ccc(C(=O)Nc4nn[nH]n4)cc3)c3ccc(C4CCCCC4)cc3)sc2c1 [Example 343, 2-{3-(4-Cyclohexylphenyl)-3-[4-(2H-tetrazol-5-ylcarbamoyl)benzyl]ureido}benzothiazole-6-carboxylic acid ethyl ester]
28 | 810 | O=C(Nc1nn[nH]n1)c1ccc(CN(C(=O)c2ccc(OC(F)(F)F)cc2)c2ccc(C3CCCCC3)cc2)cc1 [Example 485, 4-{[(4-Cyclohexylphenyl)-(4-triflourmethoxybenzoyl)amino]methyl}-N-(2H-tetrazol-5-yl)benzamide]
29 | 102 | O=C(Nc1nn[nH]n1)c1ccc(CN(C(=O)NCCc2ccccc2)c2ccc(C3CCCCC3)cc2)cc1 [Example 323, 4-[1-(4-Cyclohexylphenyl)-3-phenethylureidomethyl]-N-(2H-tetrazol-5-yl)benzamide]

same assay, conditions: Glu Bd Assay (III) IC50 (nM), BHK cell membranes, WGA SPA beads, 125I-glucagon

Row | Structure (SMILES) | IC50 [nM]
30 | CC(C)(C)C1CCC(N(Cc2ccc(C(=O)NCCC(=O)O)cc2)C(=O)Nc2ccc(C#N)cc2)CC1 (stereo not shown) [Example 99, 3-{4-[1-(4-tert-Butylcyclohexyl)-3-(4-cyanophenyl)ureidomethyl]benzoylamino}propionic acid] | 1050
31 | CC(C)(C)[C@H]1CC[C@H](N(Cc2ccc(C(=O)NCCC(=O)O)cc2)C(=O)Nc2ccc(OCC3CC3)cc2)CC1 [Example 241, 3-{4-[1-(trans-4-tert-Butylcyclohexyl)-3-(4-cyclopropylmethoxyphenyl)ureidomethyl]benzoylamino}propionic acid] | 140
